In patent US20150118229A1, “JAK1 SELECTIVE INHIBITOR AND USES THEREOF” (ABBVIE INC., priority 2013, published 2015):
pIC50: −log10 of the molar value. Entries after “also recorded” stand apart in the source; their conditions may differ. Read-outs that look alike come from different tables or passages of the source.

Tests used:
IL-15 signaling = assay: Whole blood assay IL-15 pSTAT5 CD3+; type: cell-based
EPO (Erythroid CFU) = assay: Erythroid bone marrow colony forming assay (EPO); type: cell-based; conditions: read-out: Colony Formation EPO (Erythroid CFU)
[1] = tested on: EPO dependent reticulocyte deployment; assay: Reticulocyte deployment assay (i.v. EPO) in rats; type: in vivo; conditions: over the exposure range efficacious in rat AIA
Excerpt: Reticulocytes were deployed with an i.v. EPO injection, which produced a modest but very precise reticulocytosis.
In contrast, PBS control has negligible (if any) effect. This is consistent with the fact that EPO signals through Jak2 to stimulate reticulocyte development.

[2] = Pharmacokinetics across species; type: in vivo; conditions: rat, monkey, dog, plasma
[3] = Metabolic stability in hepatocytes, dog; type: in vitro ADME; conditions: read-out: intrinsic clearance in hepatocytes (converted)
all other CYPs = assay: Metabolism by all other recombinant CYPs; type: in vitro ADME
[4] = Pivotal 4-week GLP oral toxicity study in dogs; type: in vivo, beagle dogs
Excerpt: The GLP-compliant studies each included 4 weeks of oral dosing followed by a 4-week recovery period in both rats and dogs followed by GLP-compliant chronic toxicity studies in rats (6 months of oral dosing) and dogs (9 months of oral dosing).

[5] = Safety pharmacology in dogs (mean arterial pressure, heart rate); conditions: dog, in vivo; read-out: Cmax at which effects on mean arterial pressure and heart rate begin
Protocol: Compound 1 was tested in a battery of safety pharmacology assays.

[6] = tested on: peripheral NK, NKT cells, circulating reticulocytes; assay: NK, NKT cell and reticulocyte counts in healthy human subjects dosed bid for 14 days; type: in vivo; conditions: 3, 6, 12, 24 mg bid 14 days
Protocol: The following procedure is provided to illustrate a method of counting TBNK cells from a blood sample, such as one collected from a human subject orally dosed with a compound of the invention. The method (including the type of instruments and reagents used) as described herein in is non-limiting, as minor variations to the procedure and equivalent instruments and reagents can be readily envisioned.
Specifically, a blood sample is collected into 3 mL lavender K2 EDTA Vacutainer at specified time points and tubes mixed. Samples are shipped to analysis facility at ambient temperature overnight, and sample analysis is preferably done on the day received.
Two BD Trucount tubes (BD Biosciences, cat #340334) are used per sample and labeled with sample number followed by A or B. Two tubes are also set up for the BD Multi-Check Control (BD Biosciences, cat #340911) that is a stabilized blood sample used as an inter-run control each time samples are analyzed. […]
For NKT cell determination, cell numbers are determined by using FlowJo and looking at the CD3^+/CD16^+/CD56^+ population. The number of cells/μL is calculated by using the following equation: (the number of events in cell population/the number of events in absolute bead count region)×(the number of beads per test*/test volume). *This value is found on BD Trucount tube label.

[7] = dog, in vivo
[8] = rat, in vivo
Protocol: The 4-week rat study was conducted at dose levels of 0, 10, 50, 100, and 200 mg/kg/day by daily oral administration (gavage). […] The cause of death was not determined for animals that died.

OCT1 = OCT1 (Homo sapiens, UniProt O15245); assay: Transporter inhibition, OCT1; conditions: up to 30 μM
OCT1, sequence (O15245 whole entry): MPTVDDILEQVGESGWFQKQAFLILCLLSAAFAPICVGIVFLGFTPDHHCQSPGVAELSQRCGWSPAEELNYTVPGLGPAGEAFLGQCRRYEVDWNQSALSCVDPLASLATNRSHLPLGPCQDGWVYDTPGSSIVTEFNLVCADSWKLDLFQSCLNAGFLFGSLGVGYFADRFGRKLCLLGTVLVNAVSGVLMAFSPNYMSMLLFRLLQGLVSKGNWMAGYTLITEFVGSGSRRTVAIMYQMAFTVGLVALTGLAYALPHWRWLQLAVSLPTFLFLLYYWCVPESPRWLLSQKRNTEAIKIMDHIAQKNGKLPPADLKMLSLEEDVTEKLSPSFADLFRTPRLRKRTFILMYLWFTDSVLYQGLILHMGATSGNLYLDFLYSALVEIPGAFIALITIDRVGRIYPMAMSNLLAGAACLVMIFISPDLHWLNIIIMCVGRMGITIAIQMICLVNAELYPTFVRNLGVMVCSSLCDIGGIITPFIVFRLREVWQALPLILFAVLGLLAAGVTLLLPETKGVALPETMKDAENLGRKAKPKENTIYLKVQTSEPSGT

OATP1B3 = OATP1B3 (Homo sapiens, UniProt Q9NPD5); assay: Transporter inhibition, OATP1B3; conditions: up to 30 μM
OATP1B3, sequence (Q9NPD5 whole entry): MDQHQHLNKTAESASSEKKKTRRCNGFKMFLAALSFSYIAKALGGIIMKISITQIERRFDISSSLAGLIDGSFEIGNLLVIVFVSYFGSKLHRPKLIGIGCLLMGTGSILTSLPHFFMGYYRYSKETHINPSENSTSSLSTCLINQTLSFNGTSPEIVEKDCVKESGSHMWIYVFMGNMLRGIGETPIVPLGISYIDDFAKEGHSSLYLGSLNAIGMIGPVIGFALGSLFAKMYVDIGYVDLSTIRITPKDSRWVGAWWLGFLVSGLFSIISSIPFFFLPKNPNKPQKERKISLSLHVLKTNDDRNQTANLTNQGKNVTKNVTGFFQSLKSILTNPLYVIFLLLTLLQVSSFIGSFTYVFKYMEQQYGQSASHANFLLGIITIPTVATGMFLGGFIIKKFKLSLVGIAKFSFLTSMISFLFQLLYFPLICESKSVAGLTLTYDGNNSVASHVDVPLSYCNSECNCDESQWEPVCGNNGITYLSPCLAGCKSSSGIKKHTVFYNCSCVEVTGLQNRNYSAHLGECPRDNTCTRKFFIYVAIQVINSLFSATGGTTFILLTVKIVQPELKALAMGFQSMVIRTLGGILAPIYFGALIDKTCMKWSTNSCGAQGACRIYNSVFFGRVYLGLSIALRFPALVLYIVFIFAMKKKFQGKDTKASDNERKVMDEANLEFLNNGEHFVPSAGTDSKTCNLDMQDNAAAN

CYP1A2 = CYP1A2 (Homo sapiens, UniProt P05177); assay: CYP inhibition in human liver microsomes, CYP1A2
CYP1A2, sequence (P05177 whole entry): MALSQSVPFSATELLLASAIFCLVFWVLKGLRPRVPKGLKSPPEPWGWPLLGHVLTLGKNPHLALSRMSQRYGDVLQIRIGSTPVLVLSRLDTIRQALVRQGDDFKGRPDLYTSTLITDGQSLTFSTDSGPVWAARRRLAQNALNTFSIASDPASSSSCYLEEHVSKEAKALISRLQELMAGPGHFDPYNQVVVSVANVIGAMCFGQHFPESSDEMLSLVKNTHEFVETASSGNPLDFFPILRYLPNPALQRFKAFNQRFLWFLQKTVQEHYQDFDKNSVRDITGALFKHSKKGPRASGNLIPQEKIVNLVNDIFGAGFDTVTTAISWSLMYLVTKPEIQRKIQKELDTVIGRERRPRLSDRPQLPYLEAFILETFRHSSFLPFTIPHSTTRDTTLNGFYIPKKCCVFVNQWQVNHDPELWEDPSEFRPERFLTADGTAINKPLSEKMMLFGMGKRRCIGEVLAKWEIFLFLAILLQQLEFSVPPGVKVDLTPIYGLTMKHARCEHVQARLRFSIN

CYP2B6 = CYP2B6 (Homo sapiens, UniProt P20813); assay: CYP inhibition in human liver microsomes, CYP2B6
CYP2B6, sequence (P20813 whole entry): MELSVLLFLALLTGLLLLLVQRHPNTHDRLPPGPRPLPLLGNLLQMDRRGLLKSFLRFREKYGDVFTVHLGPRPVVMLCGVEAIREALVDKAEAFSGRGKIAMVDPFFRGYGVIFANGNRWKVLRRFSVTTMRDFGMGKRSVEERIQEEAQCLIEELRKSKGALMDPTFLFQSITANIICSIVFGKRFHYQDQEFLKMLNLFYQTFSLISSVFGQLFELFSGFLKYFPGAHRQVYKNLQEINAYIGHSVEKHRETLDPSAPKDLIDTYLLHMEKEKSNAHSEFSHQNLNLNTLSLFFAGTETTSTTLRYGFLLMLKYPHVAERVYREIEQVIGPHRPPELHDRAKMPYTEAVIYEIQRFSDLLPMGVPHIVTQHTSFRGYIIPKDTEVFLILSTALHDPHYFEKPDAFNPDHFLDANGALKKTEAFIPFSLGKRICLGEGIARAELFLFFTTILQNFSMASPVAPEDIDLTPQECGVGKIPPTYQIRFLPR

CYP2C8 = CYP2C8 (Homo sapiens, UniProt P10632); assay: CYP inhibition in human liver microsomes, CYP2C8
CYP2C8, sequence (P10632 whole entry): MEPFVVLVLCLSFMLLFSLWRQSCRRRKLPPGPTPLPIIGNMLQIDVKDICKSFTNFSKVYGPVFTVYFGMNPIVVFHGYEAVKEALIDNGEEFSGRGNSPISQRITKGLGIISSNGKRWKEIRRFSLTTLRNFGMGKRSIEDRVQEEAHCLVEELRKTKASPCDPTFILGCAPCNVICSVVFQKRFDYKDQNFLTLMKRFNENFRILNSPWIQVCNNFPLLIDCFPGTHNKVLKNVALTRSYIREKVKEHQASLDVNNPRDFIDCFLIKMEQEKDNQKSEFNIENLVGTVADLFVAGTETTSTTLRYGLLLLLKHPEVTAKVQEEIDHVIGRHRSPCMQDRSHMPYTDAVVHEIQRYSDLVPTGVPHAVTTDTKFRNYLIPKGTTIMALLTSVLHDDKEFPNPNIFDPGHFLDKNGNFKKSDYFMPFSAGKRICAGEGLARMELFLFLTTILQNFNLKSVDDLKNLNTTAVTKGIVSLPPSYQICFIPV

CYP2D6 [9] = molecular target: T1, CYP2D6 (Homo sapiens, UniProt P10635); assay: CYP inhibition in human liver microsomes, CYP2D6
T1 sequence (P10635 whole entry): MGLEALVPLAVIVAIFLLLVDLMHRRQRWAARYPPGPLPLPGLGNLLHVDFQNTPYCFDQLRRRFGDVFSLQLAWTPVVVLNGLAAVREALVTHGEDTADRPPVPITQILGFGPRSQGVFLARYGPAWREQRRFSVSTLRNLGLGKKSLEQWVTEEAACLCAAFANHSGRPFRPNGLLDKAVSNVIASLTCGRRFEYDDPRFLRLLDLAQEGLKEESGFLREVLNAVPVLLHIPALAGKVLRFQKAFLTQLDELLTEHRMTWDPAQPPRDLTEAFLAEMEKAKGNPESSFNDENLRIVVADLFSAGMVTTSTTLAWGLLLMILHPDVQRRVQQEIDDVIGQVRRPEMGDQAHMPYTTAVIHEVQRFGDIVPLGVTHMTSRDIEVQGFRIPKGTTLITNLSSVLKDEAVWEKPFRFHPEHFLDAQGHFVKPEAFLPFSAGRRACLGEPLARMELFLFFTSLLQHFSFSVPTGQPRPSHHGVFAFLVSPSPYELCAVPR

CYP2D6 [10] = molecular target: T1, CYP2D6; assay: Metabolism by recombinant CYP2D6; type: in vitro ADME; parameters: from tissue; host or cells: human liver microsomes
Excerpt: In vitro biotransformation of Compound 1 primarily occurred at imidazolpyrrolopyrazinyl ethyl pyrrolidine moiety.

IL-7-induced pSTAT5 = assay: Ex vivo stimulation assay IL-7 pSTAT5, orally dosed healthy human subjects; conditions: oral

CC[C@@H]1CN(C(=O)NCC(F)(F)F)C[C@@H]1c1cnc2cnc3[nH]ccc3n12 [Compound 1, (3S,4R)-3-ethyl-4-(3H-imidazo[1,2-a]pyrrolo[2,3-e]pyrazin-8-yl)-N-(2,2,2-trifluoroethyl)pyrrolidine-1-carboxamide]
pIC50 (IL-15 signaling; read-out: IL-15 (pSTAT5, CD3+)): 7.80 | pIC50 (IL-15 signaling; whole blood, read-out: IC50 IL-15 pSTAT5 CD3+): 7.80 | pIC50 (EPO (Erythroid CFU)): 6.40 | effects on reticulocyte deployment [1]: less than that of Tofacitinib | Vd ([2]; iv, all species, read-out: Vss): 1.6 to 2.7 L/kg | half-life ([2]; oral, read-out: plasma elimination half-life after oral dosing): 3 to 5 h | CLint scaled at 1 μM [3]: 6.92 mL/min/kg | percentage of parent remaining (all other CYPs): greater than 98.0% | NOAEL at 4 weeks ([4]; both sexes, beagle, in vivo, dog, 4 weeks GLP, oral capsule): 1.5 mg/kg/day | AUC(0-t) ([4]; both, beagle, plasma, oral, dog 1.5 mg/kg/day, males and females combined, read-out: AUC0-24 at NOAEL): 1200 ng·h/mL | decreases in red cell mass (up to) ([4]; dog, 3 mg/kg/day): −23% | decreases in circulating lymphocytes compared with baseline ([4]; dog, 5 mg/kg/day): −20% to −37% | decreases in red cell mass (up to) ([4]; dog, 5 mg/kg/day): −32% | Adverse Findings ([4]; dog, 4 weeks GLP, leading number = dose mg/kg/day): ≧3: Popliteal lymph | Cmax [5]: 420 ng/mL | peripheral NK or NKT cell counts per μL [6]: only at 12 and 24 mg | reticulocyte counts [6]: does not dose dependently reduce reticulocyte counts | AUC lower in fed than fasted animals [7]: approximately 40% | Cmax lower in fed than fasted animals [7]: approximately 3 fold | Vc ([7]; iv, 1 mg/kg): 1.9 L/kg | Vβ ([7]; iv, 1 mg/kg): 2.9 L/kg | F ([7]; po, 5 mg/kg): 65.8 (12.1) % | Adverse Findings ([8]; both, 4 weeks): 100: Kidneys-cortical tubular | dose-limiting effects [8]: mortality | change in RBC counts compared to control means ([8]; 100 mg/kg/day): −13% | change in hematocrit compared to control means ([8]; 100 mg/kg/day): −14% | increase in mean phosphorus (up to, vs control mean) ([8]; 100 mg/kg/day): +10% | inhibition of OCT1 uptake (OCT1): No significant inhibition | inhibition of OATP1B3 uptake (OATP1B3): No significant inhibition | time-dependent inhibition of CYP1A2 (CYP1A2; human liver microsomes): No obvious time-dependent inhibition | inhibition of CYP1A2 (CYP1A2; up to 30 μM): did not inhibit; also recorded: not an inhibitor | time-dependent inhibition of CYP2B6 (CYP2B6; human liver microsomes): No obvious time-dependent inhibition | inhibition of CYP2B6 (CYP2B6; up to 30 μM): did not inhibit; also recorded: not an inhibitor | time-dependent inhibition of CYP2C8 (CYP2C8; human liver microsomes): No obvious time-dependent inhibition | inhibition of CYP2C8 (CYP2C8; up to 30 μM): did not inhibit; also recorded: not an inhibitor | time-dependent inhibition of CYP2D6 (CYP2D6 [9]; human liver microsomes): No obvious time-dependent inhibition | inhibition of CYP2D6 (CYP2D6 [9]; up to 30 μM): did not inhibit; also recorded: not an inhibitor | percentage of parent remaining (CYP2D6 [10]): 73.4% | dose causing the same inhibition of IL-7-induced pSTAT5 as 5 mg tofacitinib (IL-7-induced pSTAT5): 12 mg
